The source of these data is ChEMBL document CHEMBL5137039, “Therapeutic potentials and structure-activity relationship of 1,3-benzodioxole N-carbamothioyl carboxamide derivatives as selective and potent antagonists of P2X4 and P2X7 receptors” (Eur J Med Chem, 2022).

For data set [1], the system named is HeLa. Put plainly: Cytotoxicity against human HeLa cells assessed as reduction in cell viability at 50 uM after 24 hrs by MTT assay relative to control. The format is toxicity, cell-based.
Data set [2] is described as follows: Cytotoxicity against human 1321N1 cells assessed as reduction in cell viability at 50 uM after 24 hrs by MTT assay relative to control. The format is toxicity, cell-based. The settings on record: 1321n1, 24 h. In general terms: Formazan colour is commonly taken as a measure of viable cells.
Data set [3] deals with HEK293. Put plainly: Cytotoxicity against HEK293 cells assessed as reduction in cell viability at 50 uM after 24 hrs by MTT assay relative to control. The format is toxicity, cell-based. The following applies: human, hek293, 24 h.
Data set [4] addresses T1, P2X purinoceptor 2 (Homo sapiens) (UniProt Q9UBL9).
T1 sequence (whole entry): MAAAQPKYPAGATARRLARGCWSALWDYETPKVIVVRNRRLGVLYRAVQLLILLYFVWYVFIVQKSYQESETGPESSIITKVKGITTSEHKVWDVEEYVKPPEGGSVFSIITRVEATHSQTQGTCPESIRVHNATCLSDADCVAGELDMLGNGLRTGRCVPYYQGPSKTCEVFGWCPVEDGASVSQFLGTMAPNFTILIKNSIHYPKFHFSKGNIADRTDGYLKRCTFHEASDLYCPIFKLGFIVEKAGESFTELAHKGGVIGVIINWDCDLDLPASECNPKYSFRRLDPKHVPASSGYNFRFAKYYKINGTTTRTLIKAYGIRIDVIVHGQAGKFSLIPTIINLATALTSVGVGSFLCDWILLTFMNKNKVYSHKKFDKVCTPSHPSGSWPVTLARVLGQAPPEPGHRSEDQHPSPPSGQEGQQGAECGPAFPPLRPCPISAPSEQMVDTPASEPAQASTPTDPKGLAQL
Put plainly: Antagonist activity against human P2X2R stably transfected in human 1321N1 cells at 50 uM incubated for 30 mins by Fura-2 AM staining based calcium influx assay relative to control. Format: cell-based. Further details: scale not given: the % may be the effect or the level left. The settings on record: filed as antagonist.

The target of data set [5] is T2, P2X purinoceptor 4 (Homo sapiens, UniProt Q99571).
T2 sequence (Q99571 whole entry): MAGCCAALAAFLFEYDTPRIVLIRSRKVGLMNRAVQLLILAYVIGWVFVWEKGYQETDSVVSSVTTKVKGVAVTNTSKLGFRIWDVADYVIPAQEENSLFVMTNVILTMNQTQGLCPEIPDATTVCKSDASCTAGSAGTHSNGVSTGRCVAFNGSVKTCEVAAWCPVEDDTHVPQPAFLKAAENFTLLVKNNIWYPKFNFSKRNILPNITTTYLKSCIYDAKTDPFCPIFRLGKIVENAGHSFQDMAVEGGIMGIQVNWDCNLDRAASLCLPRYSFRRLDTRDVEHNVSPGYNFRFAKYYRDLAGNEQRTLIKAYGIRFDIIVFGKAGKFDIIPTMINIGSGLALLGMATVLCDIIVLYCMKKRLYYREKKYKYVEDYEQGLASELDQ
Nature of the data set: Antagonist activity against human P2X4R stably transfected in human 1321N1 cells incubated for 30 mins by Fura-2 AM staining based calcium influx assay. The format is cell-based.

Data set [6] has as its target P2X purinoceptor 5 (Homo sapiens, UniProt Q93086). Nature of the data set: Antagonist activity against human P2X5R stably transfected in human 1321N1 cells at 50 uM incubated for 30 mins by Fura-2 AM staining based calcium influx assay relative to control. Format: cell-based. Also noted: scale not given: the % may be the effect or the level left.
Data set [7] has as its target T3, P2X purinoceptor 7 (Homo sapiens, UniProt Q99572).
T3 sequence (Q99572 whole entry): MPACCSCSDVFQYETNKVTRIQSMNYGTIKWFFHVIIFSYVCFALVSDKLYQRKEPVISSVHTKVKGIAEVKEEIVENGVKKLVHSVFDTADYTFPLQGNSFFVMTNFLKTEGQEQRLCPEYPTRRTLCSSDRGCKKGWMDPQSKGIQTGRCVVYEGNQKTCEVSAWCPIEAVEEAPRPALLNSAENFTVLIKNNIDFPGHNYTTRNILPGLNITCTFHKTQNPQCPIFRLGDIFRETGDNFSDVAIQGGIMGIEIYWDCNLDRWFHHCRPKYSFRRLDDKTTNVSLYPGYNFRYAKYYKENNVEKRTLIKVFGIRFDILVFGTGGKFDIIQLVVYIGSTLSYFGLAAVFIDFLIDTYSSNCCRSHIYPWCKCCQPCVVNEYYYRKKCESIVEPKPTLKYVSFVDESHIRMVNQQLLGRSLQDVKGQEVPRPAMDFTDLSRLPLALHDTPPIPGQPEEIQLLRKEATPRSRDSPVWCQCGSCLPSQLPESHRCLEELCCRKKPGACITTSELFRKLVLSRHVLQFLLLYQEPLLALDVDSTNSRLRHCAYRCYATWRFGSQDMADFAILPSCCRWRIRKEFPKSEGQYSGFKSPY
Put plainly: Antagonist activity against human P2X7R stably transfected in human 1321N1 cells incubated for 30 mins by Fura-2 AM staining based calcium influx assay. Format: cell-based.

Data set [8] concerns the target T4, P2X purinoceptor 7 (Homo sapiens) (UniProt Q99572).
T4 sequence (whole entry): T3 sequence (Q99572 whole entry)
Put plainly: Antagonist activity against human P2X7R stably transfected in human 1321N1 cells assessed as BzATP Emax at 0.05 uM incubated for 30 mins by Fura-2 AM staining based calcium influx assay relative to control. The following applies: filed as antagonist. The format is cell-based.

The target of data set [9] is T4, P2X purinoceptor 7 (Homo sapiens). Nature of the data set: Antagonist activity against human P2X7R stably transfected in human 1321N1 cells assessed as BzATP Emax at 0.1 uM incubated for 30 mins by Fura-2 AM staining based calcium influx assay relative to control. The following applies: filed as antagonist. The format is cell-based.
Data set [10] shares this target. Put plainly: Antagonist activity against human P2X7R stably transfected in human 1321N1 cells assessed as BzATP Emax at 0.2 uM incubated for 30 mins by Fura-2 AM staining based calcium influx assay relative to control. The format is cell-based.
The target of data set [11] is T3, P2X purinoceptor 7. Nature of the data set: Antagonist activity against human P2X7R stably transfected in human 1321N1 cells assessed as reduction in BzATP-induced activity incubated for 5 to 10 mins by EtBr staining based fluorescence assay. Format: cell-based.

P2X purinoceptor 5, sequence (Q93086 whole entry): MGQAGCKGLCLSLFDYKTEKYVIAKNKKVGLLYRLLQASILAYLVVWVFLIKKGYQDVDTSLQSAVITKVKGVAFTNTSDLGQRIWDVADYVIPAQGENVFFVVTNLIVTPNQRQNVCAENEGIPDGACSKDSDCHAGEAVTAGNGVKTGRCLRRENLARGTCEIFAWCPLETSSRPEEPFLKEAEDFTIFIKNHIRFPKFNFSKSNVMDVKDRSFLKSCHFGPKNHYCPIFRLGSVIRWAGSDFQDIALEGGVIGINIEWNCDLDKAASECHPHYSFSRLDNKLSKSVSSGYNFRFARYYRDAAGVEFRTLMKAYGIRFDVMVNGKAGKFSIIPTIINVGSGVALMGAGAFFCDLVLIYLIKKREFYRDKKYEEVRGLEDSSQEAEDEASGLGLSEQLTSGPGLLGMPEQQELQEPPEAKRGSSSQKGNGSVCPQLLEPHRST

With `O=C(NC(=S)Nc1cccc2cccnc12)c1ccc2c(c1)OCO2`, the Activity in data set [1] turned out to be 5.45%; in data set [2] it was 3.04%; in data set [3] it was 1.42%; in data set [4] it was 41%; in data set [6], 29%. Also, the results for the IC50 in [5], in [7] and in data set [11] were 0.908 µM, 0.018 µM and 0.03 µM, respectively. The maximum response (Emax) stood at 83% in data set [8], 68% in data set [9] and 29% in [10].

By IC50 is commonly meant the concentration that inhibits the measured activity by half. Broadly, the Emax is the maximal effect, on the per cent scale that the assay sets.
